# Measurements reported in patent publication US6030997A, “Acid labile prodrugs” (priority 1998, dated 2000).
# Tests used:
# Fisher 344 rats = assay: 7-day once daily repeated intravenous toxicity in Fisher 344 rats: clinical signs, mortality, body weight, necropsy; format: in vivo, rat (Fisher 344); conditions: i.v. once daily 7 days, ProGenta equimolar to 60 mg/kg Gentamicin or Gentamicin 60 mg/kg; particularly females; especially striking Day 10
# Experimental: All animals received 10 mg/liter of sodium bicarbonate in drinking water. All animals were allowed an additional 3-day recovery period. Final assessment of treatment effects was based on monitoring clinical signs, determinations of body weight, serum creatinine levels and urinary protein content. In addition, all animals were subjected to necropsy at termination of the study.
# BALB/c mice = assay: Toxicity of daily intravenous injections in BALB/c mice (proteinuria by Dipstick, mortality, gross pathology); format: in vivo, mouse (BALB/c); conditions: day 3, Gentamicin 75 mg/kg i.v. daily
# kidney = conditions: rat, in vivo
# Experimental: 3.1 The potential intravenous toxicity of the test article ProGenta (in a dose equimolar to 60 mg/kg of Gentamicin, Example 1) following once daily repeated intravenous administrations during 7 days, was studied in a group of seven male and seven female Fisher 344 rats, in comparison to an identically treated and equally sized group treated with the control article Gentamicin (60 mg/kg), and an untreated control group comprising six male and six female rats. All animals received 10 mg/liter of sodium bicarbonate in drinking water. All animals were allowed an additional 3-day recovery period. Final assessment of treatment effects was based on monitoring clinical signs, determinations of body weight, serum creatinine levels and urinary protein content. In addition, all animals were subjected to necropsy at termination of the study.
# mice = conditions: i.v.; cited from earlier work
substance,measurement,setting,value
Gentamicin,weight gain,Fisher 344 rats,a relative reduction in normally expected weight gain
same,mortality,BALB/c mice,the two mice in the Gentamicin group died several hours after the injection
same,proteinuria,kidney,reached a peak value
same,urinary protein content,kidney,markedly increased
same,LD50,mice,75 mg/kg
